Results reported in patent US5179090A, “Condensed diazepinones and medicaments containing these compounds” (priority 1989, dated 1993).

Experiments:
M receptors of the heart [1] = target: T1, M receptors of the heart (Cavia porcellus, UniProt H0VRN8); assay: Acetylcholine antagonism in anaesthetised guinea pigs: inhibition of bradycardia; type: in vivo, guinea pig; settings: iv, 5 min; guinea pig, i.v., acetylcholine antagonism (bradycardia), n=4-6; read-out: -log ED50 heart (converted)
T1 construct: from tissue; host or cells: heart of anaesthetised guinea pigs (in vivo)
T1 sequence (H0VRN8 1-466): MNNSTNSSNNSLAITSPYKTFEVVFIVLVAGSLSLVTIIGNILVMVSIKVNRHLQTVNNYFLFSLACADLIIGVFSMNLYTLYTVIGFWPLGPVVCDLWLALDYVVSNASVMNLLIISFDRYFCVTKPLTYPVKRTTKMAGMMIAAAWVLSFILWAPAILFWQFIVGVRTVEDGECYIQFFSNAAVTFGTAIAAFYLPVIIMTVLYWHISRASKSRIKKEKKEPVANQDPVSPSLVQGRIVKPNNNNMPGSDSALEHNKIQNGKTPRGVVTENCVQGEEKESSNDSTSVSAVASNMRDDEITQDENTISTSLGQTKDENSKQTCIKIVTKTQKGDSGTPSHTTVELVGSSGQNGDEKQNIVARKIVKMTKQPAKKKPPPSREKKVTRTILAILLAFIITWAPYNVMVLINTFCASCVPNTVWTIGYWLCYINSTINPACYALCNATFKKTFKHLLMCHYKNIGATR
From the text: (§1) The methods used had the aim of confirming the selectivity of the anti-muscarine effect. Any substances which had been selected on the basis of "in vitro" investigations were investigated for
(§2) 1. Effect on M receptors of the bronchial tubes, the heart and the bladder of anaesthetised guinea pigs
(§3) Guinea pigs of both sexes (550-600 g body weight) were anaesthetised using urethane (1.4 g/kg intraperitoneally). A cannula was introduced into the augular vein to inject the active agents. 220 I.U./kg of heparin were injected intravenously. A cannula was introduced into the trachea; the animals were artificially respirated by means of a positive pressure pump (Braun-Melsungen) using oxygen-enriched air at a rate of 80 beats per minute. A branch of the tracheal cannula was connected to a water manometer 10 cm high. The respiration volume was set such that the maximum intratracheal pressure just reached the pressure of a 10 cm water column during respiration.
(§4) The values were recorded using an IFD recording apparatus. The trachea was clamped for a short time before the test to produce the maximum possible degree of bronchoconstriction for calibration. […] The heart rate was measured using a rate detector which is triggered by arterial pulse waves.
(§5) The active substances to be tested were injected via the jugular vein, 5 minutes later the increase in tone of the bladder (in grams) the bronchial resistance (in %) and the decrease in heart rate (beats per minute) were measured after administration of acetylcholine (50 μg/kg intravenously and intraarterially). Dosage-dependency graphs were drawn by plotting the percentage inhibition of bronchoconstriction, bradycardia and the increase in tone of the bladder against the logarithm of the dosage (mole/kg) of the active agents to be investigated. The results are given as average values (n=4-6).

[2] = target: T2, muscarine receptors in the ileum (Cavia porcellus, UniProt H0W1Z3); assay: In vitro dissociation constant on ileum, methacholine antagonism; type: cell-based, guinea pig; settings: guinea pig ileum
T2 construct: The ileum was removed and incubated in an organ bath; from tissue; host or cells: isolated ileum of guinea pig
Procedure: (§6) Substances having anti-muscarine properties inhibit the effects of exogenically introduced agonists or of acetylcholine which is released from cholinergic nerve endings. A description of methods which are suitable for determining spasmolytically active anti-muscarine agents is given below.
(§7) Dissociation constants ([…]) were determined "in vitro" on the ileum and spontaneously beating vestibule of a guinea pig. The ileum was removed and incubated in an organ bath in Krebs- Henseleit solution. Contractions were induced by increasing concentrations of methacholine (M) such that complete concentration-activity graphs could be plotted. M was then washed out, the substance to be investigated was added and incubated for 30 minutes, and once again a concentration-activity graph was plotted using M.
(§8) Dissociation constants for the muscarine receptors of the vestibule were obtained in the same manner as described above.

[3] = tested on: muscarine receptors in the ileum; assay: as above; type: cell-based, guinea pig; settings: guinea pig
Procedure: as §6, §7, §8

[4] = tested on: M receptors of the bronchial tubes; assay: Acetylcholine antagonism in anaesthetised guinea pigs: inhibition of bronchoconstriction; type: in vivo, guinea pig; settings: for Ratio influence of bradycardia to bronchoconstriction: guinea pig, i.v., ratio heart (bradycardia) to bronchial tubes; for selectivity for smooth muscle: smooth muscle vs heart rate or saliva secretion
From the text: as §1
(§9) 1. selectivity of the bronchospasmolytic activity in the guinea pig,
as §2, §3, §4, §5

[5] = target: T3, M receptors of the bronchial tubes (Cavia porcellus, UniProt H0W1Z3); assay: as above; type: in vivo, guinea pig; settings: iv, 5 min; guinea pig, i.v., acetylcholine antagonism, n=4-6; read-out: -log ED50 bronchial tubes (converted)
T3 construct: Guinea pigs of both sexes (550-600 g body weight) were anaesthetised using urethane; from tissue; host or cells: bronchi of anaesthetised guinea pigs (in vivo)
From the text: as §1, §9, §2, §3, §4, §5

[6] = target: T4, M receptors of the bladder (Cavia porcellus, UniProt H0W1Z3); assay: Acetylcholine antagonism in anaesthetised guinea pigs: inhibition of increase in tone of the bladder; type: in vivo; settings: iv, 5 min, guinea pig, i.v., n=4-6, read-out: -log ED50 bladder (converted)
T4 construct: the bladder was connected to a power transducer under a resting tension of 1 gram; from tissue; host or cells: urinary bladder of anaesthetised guinea pigs (in vivo)
From the text: as §1, §2, §3
A small median abdominal incision was made and the bladder was connected to a power transducer under a resting tension of 1 gram.
as §5

[7] = target: T5, muscarine receptors of the vestibule (Cavia porcellus, UniProt H0VRN8); assay: In vitro dissociation constant on spontaneously beating vestibule (heart), methacholine antagonism; type: cell-based; settings: guinea pig spontaneously beating vestibule
T5 construct: in the removed, spontaneously beating right vestibule; from tissue; host or cells: isolated spontaneously beating right atrium ('vestibule') of guinea pig
T5 sequence (H0VRN8 1-466): T1 sequence (H0VRN8 1-466)
Procedure: as §6, §7
The dissociation constant according to Arunlakshana and Schild (Brit. J. Pharmacol. 14; 48 (1959)) Was calculated from the dosage ratio (DR) which is the measure of the displacement of the concentration-activity graph.
M reduced the heart rate as a function of concentration in the removed, spontaneously beating right vestibule. This effect was cancelled again by adding an anti-muscarine agent. Dissociation constants for the muscarine receptors of the vestibule were obtained in the same manner as described above. The comparison of the dissociation constants determined in both tissues permitted the identification of selectively spasmolytically active substances.

saliva secretion = assay: Saliva secretion-inhibiting effect in the rat (pilocarpine-triggered); type: in vivo; settings: iv, pilocarpine 2 mg/kg subcutaneous, 50% reduction of saliva volume, read-out: -log ED50 saliva secretion inhibition rat (converted)
Procedure: as §1
2. saliva secretion-inhibiting effect in the rat, and
2. Saliva secretion-inhibitino effect in the rat
The secretion of saliva was triggered by subcutaneous administration of 2 mg/kg of pilocarpine. The saliva was absorbed using blotting paper, the surface taken up by it was determined planimetrically every 5 minutes. The dosage of the substance which reduced the volume of saliva by 50% was determined graphically.

guinea pig ileum = assay: In situ spasmolytic effect in guinea pigs (methacholine-induced ileum contractions); type: in vivo; settings: i.v.; for ED50: Cavia porcellus, iv, 5 min, guinea pig, methacholine 20 μg/kg intraarterially, n=4 to 8, read-out: -log ED50 in situ spasmolysis guinea pig ileum (converted); for Ratio saliva secretion inhibition to spasmolytic activity: rat saliva secretion vs guinea pig ileum in situ
From the text: as §1
3. in situ spasmolytic activity in the guinea pig.
3 In situ spasmolytic effect in guinea pigs
Male guinea pigs (500 to 600 g body weight) were anaesthetised using urethane (1.2 g/kg intraperitoneally);cannulae Were introduced into the trachea, jugular vein and the left carotid artery. The animals were artificially respirated by means of a positive pressure pump using oxygen-enriched air at a beat frequency of 80 per minute. A 3 to 4 cm abdominal incision was made and about 15 cm of a movable loop of the ileum was removed distally while maintaining the blood circulation. The proximal part was filled with a Krebs-Ringer solution and a pressure meter was introduced into the intestine using a Millar micro-tip catheter (PC-450, 5F). A glass tube was placed vertically in the abdomen and attached to the surrounding abdominal wall such that the animal served as its own organ bath when the glass tube was filled with Krebs-Ringer solution.
The glass tube was filled with Krebs-Ringer solution until the whole of the hypogastrium was immersed. The active agents to be tested were injected via the jugular vein; 5 minutes later contractions were produced by means of methacholine (20 μg/kg intraarterially). Dosage-activity graphs were obtained by plotting the percentage suppression of contractions produced by methacholine against the logarithm of dosage amount (mole/kg) of the active substance to be tested.
The results were given as average values (n=4 to 8) (see Table II).

M receptors of the heart [8] = assay: Acetylcholine antagonism in anaesthetised guinea pigs: inhibition of bradycardia; type: in vivo, guinea pig; settings: comparison, Tables I and III
From the text: as §1, §2, §3, §4, §5

T4 sequence (H0W1Z3 1-590): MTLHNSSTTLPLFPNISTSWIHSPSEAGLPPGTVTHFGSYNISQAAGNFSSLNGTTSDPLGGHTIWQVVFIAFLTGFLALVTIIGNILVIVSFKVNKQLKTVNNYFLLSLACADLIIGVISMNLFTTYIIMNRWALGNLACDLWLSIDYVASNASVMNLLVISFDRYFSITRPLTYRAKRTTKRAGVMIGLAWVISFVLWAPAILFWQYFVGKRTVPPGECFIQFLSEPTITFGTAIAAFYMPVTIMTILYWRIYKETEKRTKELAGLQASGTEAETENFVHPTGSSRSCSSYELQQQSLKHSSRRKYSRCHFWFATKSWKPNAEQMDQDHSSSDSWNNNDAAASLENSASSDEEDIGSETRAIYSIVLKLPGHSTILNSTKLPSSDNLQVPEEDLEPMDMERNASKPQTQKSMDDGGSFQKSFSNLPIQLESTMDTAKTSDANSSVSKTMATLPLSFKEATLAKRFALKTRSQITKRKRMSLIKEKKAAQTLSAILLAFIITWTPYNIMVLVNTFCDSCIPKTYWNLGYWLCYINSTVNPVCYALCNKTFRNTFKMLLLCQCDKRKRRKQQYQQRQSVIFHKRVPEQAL
T3 sequence (H0W1Z3 1-590): as above
T2 sequence (H0W1Z3 1-590): as above

Compound | ED50 (M receptors of the heart [1]) | Kb [2] | Selectivity KB heart to KB ileum [3] | Ratio influence of bradycardia to bronchoconstriction [4] | selectivity for smooth muscle [4] | ED50 [5] | ED50 [6] | Kb [7] | ED50 (saliva secretion) | ED50 (guinea pig ileum) | Ratio saliva secretion inhibition to spasmolytic activity (guinea pig ileum) | effectiveness on cardiac muscarine receptors (M receptors of the heart [8])
CN1CCC2C1CCN2C(=O)N1c2ccccc2C(=O)Nc2cccnc21 (centres unmarked) [A] | 1.05 µmol/kg | 30.2 nM | 6.9 | 21 | very marked smooth muscle selectivity | 0.049 µmol/kg | 0.49 µmol/kg | 209 nM | 0.2 µmol/kg | 0.117 µmol/kg | 2 | –
CN1CCC2C1CCN2C(=O)N1c2ccccc2NC(=O)c2cccnc21 (centres unmarked) [B] | 1.95 µmol/kg | 60.3 nM | 2.4 | 44 | very marked smooth muscle selectivity | 0.0447 µmol/kg | 0.813 µmol/kg | 145 nM | – | – | – | –
CN1CC2CN(C(=O)N3c4ccccc4C(=O)Nc4cccnc43)CC2C1 (centres unmarked) [C] | 4.79 µmol/kg | – | – | 8 | – | 0.631 µmol/kg | 3.02 µmol/kg | – | 2.95 µmol/kg | 0.708 µmol/kg | 4 | –
Cc1scc2c1N(C(=O)N1CC3CN(C)CC3C1)c1ccccc1NC2=O (centres unmarked) [D] | 0.741 µmol/kg | – | – | 8 | – | 0.0891 µmol/kg | 1.58 µmol/kg | – | – | – | – | –
CN(C)CC1CCCCN1CC(=O)N1c2ccccc2C(=O)Nc2cccnc21 (centres unmarked) [X] | 1.45 µmol/kg | 617 nM | 0.17 | 0.5 | – | 2.63 µmol/kg | 11.7 µmol/kg | 105 nM | – | – | – | higher effectiveness on cardiac muscarine receptors
CN1CCN(CC(=O)N2c3ccccc3C(=O)Nc3cccnc32)CC1 [Y] | 1.26 µmol/kg | 194 nM | 0.63 | 5 | no selectivity | 0.269 µmol/kg | 1.45 µmol/kg | 123 nM | 0.38 µmol/kg | 0.832 µmol/kg | 0.5 | –
CN1[C@@H]2CC[C@H]1CC(OC(=O)C(CO)c1ccccc1)C2 (some centres unmarked) [Z] | 0.0269 µmol/kg | – | – | – | – | 0.00813 µmol/kg | 0.0525 µmol/kg | – | – | 0.0525 µmol/kg | – | –
